The subject of series [1] is EHMT2/EHMT1. The conditions noted are these: cited from earlier work.
Series [2] relates to Shank3+/ΔC mice. Nature of the series: Three-chamber social interaction assay in Shank3+/ΔC mice. The conditions noted are these: for improvement on social preference: i.p. once daily for 3 days. The format is in vivo.
In series [3] the test system is Shank3+/ΔC mice. The conditions noted are these: mouse, in vivo.
In series [4] the test system is EHMT1/2. The conditions noted are these: Liu et al., 2013; cited from earlier work.
For series [5], the system named is WT mice. The series can be described thus: Three-chamber social interaction assay in wild-type mice. It is filed as in vivo. The conditions noted are these: UNC0642 1 mg/kg, i.p., once daily for 3 days, saline control 62.0%±3.1%. An excerpt:
To test the social preference behavior, juvenile male Shank3+/ΔC mice and age-matched wild-type (WT) mice were subject to the three-chamber social interaction assay, as previously described (Duffney et al., 2015). Briefly, the test is composed of three phases with various stimuli placed in each of two side chambers. Phase 1 contains two identical nonsocial stimuli (NS1 & NS1), phase 2 contains a nonsocial stimulus (NS1) and a social stimulus (Soc1), and phase 3 contains a known social stimulus (Soc1) and a novel social stimulus (Soc2). The preference index for one stimulus over the other stimulus in each phase was compared.

The subject of series [6] is Shank3+/ΔC mice. The conditions noted are these: 5 mg/kg, i.p. 5 days, Kim et al., 2017; cited from earlier work.
The conditions of series [7]: Liu et al., 2013; cited from earlier work.
The test system of series [8] is Shank3e4-9 mice. Conditions: before and after romidepsin treatment.
The subject of series [9] is acetylated H3. Conditions: Shank3+/ΔC mice, romidepsin 0.25 mg/kg, i.p., once daily for 3 days, cortical slices.
Series [10] relates to class I HDAC. Conditions: Klimek et al., 2008; cited from earlier work.
Series [11] relates to BTBR T+tf/J mice. Conditions: before and after romidepsin treatment.

For `COc1cc2c(cc1OCCCN1CCCC1)N=C(N)C21CCC1` [A-366], the “selectivity over other methyltransferases and other non-epigenetic targets” value in series [1] was more than 100 fold. Also, the IC50 in series [1] (peptide-competitive inhibitor, read-out: enzymatic IC50 EHMT2/EHMT1) is approximately 3 nM.

Consider `CC(/C=C/C(=O)NO)=C\[C@@H](C)C(=O)c1ccc(N(C)C)cc1` [Trichostatin A], for which the “rescue of autism-like social deficits (social preference index)” value (“rescue … (social preference index)” below) in series [2] (Shank3+/ΔC mice, Trichostatin A 0.5 mg/kg, i.p., once daily for 3 days) is listed as “fail to persistently rescue autism-like social deficits”.

Regarding `COc1cc2c(NC3CCN(C(C)C)CC3)nc(N3CCC(F)(F)CC3)nc2cc1OCCCN1CCCC1` [UNC0642, 2-(4,4-Difluoro-1-piperidinyl)-6-methoxy-N-[1-(1-methylethyl)-4-piperidinyl]-7-[3-(1-pyrrolidinyl)propoxy]-4-quinazolinamin], the “blood chemistry and hematology: indicators for liver and kidney functions, lipid and protein metabolism” value in [3] was “within normal ranges”. The “selectivity for EHMT1/2 over other methyltransferases” value in series [4] is on record as > 2,000 fold. Also, the “social preference index (Soc vs. NS, phase 2)” value was 53.4%±5.1% in series [5] and 48.9%±2.3% in series [2] (Shank3+/ΔC mice, UNC0642 1 mg/kg, i.p., once daily for 3 days, saline control 22.5%±3.3%). In addition, the “toxicity at higher dose and longer duration” value in series [6] is “lack of toxicity”. The “duration of therapeutic effect on social preference post-injection” value in series [2] (Shank3+/ΔC mice, UNC0642 1 mg/kg, i.p., once daily for 3 days) is reported as approximately 15 days. The “effect of repeated administration on social preference” value in series [2] (Shank3+/ΔC mice, UNC0642, second round of treatment) was “still effective with the repeated administration”. In addition, in series [7], the “brain penetration in vivo” value is on record as “modest brain penetration”.

Regarding `O=C1CCc2ccc(OCCCCN3CCN(c4cccc(Cl)c4Cl)CC3)cc2N1` [aripiprazole], the “improvement on social preference” value in series [2] (Shank3+/ΔC mice, aripiprazole 1 mg/kg) was “No improvement”.

On to `CNCCC(Oc1ccc(C(F)(F)F)cc1)c1ccccc1` (stereo not drawn) [fluoxetine], for which the “improvement of social preference” value in [2] (Shank3+/ΔC mice, fluoxetine 10 mg/kg, i.p. once daily for 2 weeks) is given as “failed to induce any improvement”.

As for `Cc1nc2n(c(=O)c1CCN1CCC(c3noc4cc(F)ccc34)CC1)CCCC2` [risperidone], the “improvement on social preference” value in [2] (Shank3+/ΔC mice, risperidone 0.1 mg/kg) is “No improvement”.

Consider `CCCC(CCC)C(=O)O` [valproic acid], for which the “rescue … (social preference index)” value in series [2] (Shank3+/ΔC mice, valproic acid 100 mg/kg, i.p., once daily for 3 days) is on record as “fail to persistently rescue autism-like social deficits”.

Romidepsin: the “rescue … (social preference index)” value in series [8] was “rescues autism-like social deficits in multiple mouse models of autism”. In addition, the “level of acetylated H3” value in series [9] is reported as “significantly elevated the level of acetylated H3”. Moreover, the “potency as class I-specific HDAC inhibitor” value in [10] is on record as “nanomolar potency”. For the same compound, the “rescue … (social preference index)” value in series [11] was “rescues autism-like social deficits”. Also, in series [2] (mouse, in vivo), the “duration of effect on social preference post-injection” value is on record as 21 days and the “preference for social stimulus over non-social object” value was “significantly elevated the preference for the social stimulus”.

The record behind these values is patent US11103549B2, “Use of histone methyltransferase inhibitors and histone deacetylase inhibitors for therapy of Phelan-McDermid Syndrome” (Asddr, LLC, priority 2016, dated 2021).
